Measurements taken from PubChem BioAssay (NCI).
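A five-concentration, 48-hour dose response in 96-well plates underlies each endpoint, interpolated linearly between surrounding concentrations. Definition used: TGI = concentration required for complete inhibition of growth.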

Legend:
Experiment in all cases: NCI tumour cell line growth inhibition, 48 h
OVCAR-8 ovarian = test system: OVCAR-8 ovarian
A549 NSCLC = test system: A549 NSCLC
SNB-78 CNS = test system: SNB-78 CNS
SF-295 CNS = test system: SF-295 CNS
M14 melanoma = test system: M14 melanoma
SK-OV-3 ovarian = test system: SK-OV-3 ovarian
HT29 colon = test system: HT29 colon
A498 renal = test system: A498 renal
NCI-H226 lung = test system: NCI-H226 lung
KM12 colon = test system: KM12 colon
ACHN renal = test system: ACHN renal
SR leukemia = test system: SR leukemia
MOLT-4 leukemia = test system: MOLT-4 leukemia
UO-31 renal = test system: UO-31 renal
RXF 393 renal = test system: RXF 393 renal
TK-10 renal = test system: TK-10 renal
SK-MEL-28 melanoma = test system: SK-MEL-28 melanoma
EKVX NSCLC = test system: EKVX NSCLC
DMS 273 small cell lung = test system: DMS 273 small cell lung
NCI-H23 lung = test system: NCI-H23 lung
SNB-19 CNS = test system: SNB-19 CNS
HOP-62 NSCLC = test system: HOP-62 NSCLC
HL-60(TB) leukemia = test system: HL-60(TB) leukemia
NCI-H460 lung = test system: NCI-H460 lung
CCRF-CEM leukemia = test system: CCRF-CEM leukemia
U251 CNS = test system: U251 CNS
NCI-H522 lung = test system: NCI-H522 lung
IGROV1 ovarian = test system: IGROV1 ovarian
DMS 114 small cell lung = test system: DMS 114 small cell lung
OVCAR-5 ovarian = test system: OVCAR-5 ovarian
HOP-92 NSCLC = test system: HOP-92 NSCLC
HCT-116 colon = test system: HCT-116 colon
UACC-257 melanoma = test system: UACC-257 melanoma
RPMI-8226 leukemia = test system: RPMI-8226 leukemia
SK-MEL-5 melanoma = test system: SK-MEL-5 melanoma
MALME-3M melanoma = test system: MALME-3M melanoma
LXFL 529 NSCLC = test system: LXFL 529 NSCLC
LOX IMVI melanoma = test system: LOX IMVI melanoma
HCT-15 colon = test system: HCT-15 colon
COLO 205 colon = test system: COLO 205 colon
UACC-62 melanoma = test system: UACC-62 melanoma
SW-620 colon = test system: SW-620 colon
M19-MEL melanoma = test system: M19-MEL melanoma
SK-MEL-2 melanoma = test system: SK-MEL-2 melanoma
OVCAR-4 ovarian = test system: OVCAR-4 ovarian
SF-268 CNS = test system: SF-268 CNS
K-562 leukemia = test system: K-562 leukemia
SNB-75 CNS = test system: SNB-75 CNS
OVCAR-3 ovarian = test system: OVCAR-3 ovarian
SF-539 CNS = test system: SF-539 CNS
786-0 renal = test system: 786-0 renal
KM20L2 colon = test system: KM20L2 colon
SN12C renal = test system: SN12C renal
XF 498 CNS = test system: XF 498 CNS
HCC-2998 colon = test system: HCC-2998 colon
DLD-1 colon = test system: DLD-1 colon
HOP-18 NSCLC = test system: HOP-18 NSCLC

Measured: TGI

CCN(CC)CSc1nc2ccccc2[nH]1
> 100 µM: OVCAR-8 ovarian | A549 NSCLC | SNB-78 CNS | SF-295 CNS | M14 melanoma | SK-OV-3 ovarian | HT29 colon | A498 renal | NCI-H226 lung | KM12 colon | ACHN renal | SR leukemia | MOLT-4 leukemia | UO-31 renal | RXF 393 renal | TK-10 renal | SK-MEL-28 melanoma | EKVX NSCLC | DMS 273 small cell lung | NCI-H23 lung | SNB-19 CNS | HOP-62 NSCLC | HL-60(TB) leukemia | NCI-H460 lung | CCRF-CEM leukemia | U251 CNS | NCI-H522 lung | IGROV1 ovarian | DMS 114 small cell lung | OVCAR-5 ovarian | HOP-92 NSCLC | HCT-116 colon | UACC-257 melanoma

S=c1ncc2c([nH]1)C1c3ccccc3C2c2ccccc21
> 100 µM: OVCAR-8 ovarian | A549 NSCLC | RPMI-8226 leukemia | SNB-78 CNS | SK-MEL-5 melanoma | MALME-3M melanoma | SF-295 CNS | M14 melanoma | LXFL 529 NSCLC | LOX IMVI melanoma | HCT-15 colon | NCI-H226 lung | KM12 colon | ACHN renal | SR leukemia | MOLT-4 leukemia | UO-31 renal | COLO 205 colon | UACC-62 melanoma | SW-620 colon | M19-MEL melanoma | SK-MEL-2 melanoma | RXF 393 renal | TK-10 renal | SK-MEL-28 melanoma | OVCAR-4 ovarian | EKVX NSCLC | SF-268 CNS | K-562 leukemia | DMS 273 small cell lung | NCI-H23 lung | SNB-19 CNS | HOP-62 NSCLC | NCI-H460 lung | CCRF-CEM leukemia | OVCAR-3 ovarian | U251 CNS | NCI-H522 lung | IGROV1 ovarian | DMS 114 small cell lung | OVCAR-5 ovarian | HCT-116 colon | SF-539 CNS | 786-0 renal | KM20L2 colon | SN12C renal
70.3 µM: HL-60(TB) leukemia
77.2 µM: SNB-75 CNS

Cc1cc(=O)n(-c2cc3cccccc-3n2)[nH]1
43.6 µM: COLO 205 colon
13 µM: SW-620 colon
48.3 µM: UO-31 renal | UACC-257 melanoma
7.61 µM: UACC-62 melanoma
59 µM: SF-539 CNS
96.7 µM: EKVX NSCLC
91.5 µM: KM12 colon
5.27 µM: HCT-116 colon
44.4 µM: NCI-H226 lung
16.1 µM: NCI-H460 lung
35.6 µM: HT29 colon
16.9 µM: LXFL 529 NSCLC
67.2 µM: RPMI-8226 leukemia
22.3 µM: M19-MEL melanoma
> 100 µM: A549 NSCLC | SF-295 CNS | LOX IMVI melanoma | DLD-1 colon | MOLT-4 leukemia | TK-10 renal | SK-MEL-28 melanoma | SNB-19 CNS | HOP-62 NSCLC | CCRF-CEM leukemia | OVCAR-5 ovarian | KM20L2 colon
11.2 µM: RXF 393 renal
46.9 µM: A498 renal
7.73 µM: DMS 114 small cell lung
47 µM: SK-OV-3 ovarian
7.46 µM: XF 498 CNS
9.84 µM: MALME-3M melanoma
47.4 µM: NCI-H23 lung
8.45 µM: IGROV1 ovarian
19.6 µM: M14 melanoma
31.7 µM: SNB-75 CNS
85.2 µM: HOP-18 NSCLC
18 µM: 786-0 renal
11.6 µM: HL-60(TB) leukemia
50.3 µM: ACHN renal
25.5 µM: HCT-15 colon
8.23 µM: OVCAR-3 ovarian
6.86 µM: NCI-H522 lung
15.5 µM: K-562 leukemia
48.7 µM: HCC-2998 colon
5.32 µM: SK-MEL-5 melanoma
62.3 µM: SN12C renal
4.96 µM: U251 CNS
